# According to paper PMC5109658, “Antibacterial and cytotoxic cytochalasins from the endophytic fungus Phomopsis sp. harbored in Garcinia kola (Heckel) nut” (BMC Complementary and Alternative Medicine, 2016):
# Read-outs that look alike come from different tables or passages of the source.
# Experiments:
# V. cholerae CO6 = assay: Broth microdilution MIC/MBC; format: cell-based, Vibrio cholerae; settings: for Selectivity Index V. cholerae CO6: SI = LC50 on Vero cells / MIC; for MBC/MIC / MBC / MIC: V. cholerae CO6; for MBC / MIC: Vibrio cholerae; for MBC: 99.9% reduction in CFU after 24 h; for MIC: 24 h at 37 °C
# Method: (§1) A total of six bacterial strains were tested for their susceptibility to compounds and these strains were taken from our laboratory collection (kindly provided by Dr. T. Ramamurthy, NICED, Kolkata). Among the clinical strains of Vibrio cholerae used in this study, strains NB2 and SG24 and CO6 belonged to O1 and O139 serotypes, respectively. […]. The other strains used in this study were V. cholerae non-O1, non-O139 (strain PC2); […]. The American Type Culture Collection (ATCC) strain, Staphylococcus aureus ATCC 25923, was used for quality control. The bacterial strains were maintained on agar slant at 4 °C and subcultured on a fresh appropriate agar plates 24 h prior to any antibacterial test. The Mueller Hinton Agar (MHA) was used for the activation of bacteria. The Mueller Hinton Broth (MHB) and nutrient agar (Hi-Media) were used for the MIC and MBC determinations respectively.
# (§2) Suspensions of bacteria were prepared in MHB from cells arrested during their logarithmic phase growth (4 h) on MHB at 37 °C. The turbidity of the microbial suspension was read spectrophotometrically at 600 nm and adjusted to an OD of 0.1 with MHB, which is equivalent to 1 × 10^8 CFU/mL. From this prepared solution, other dilutions were made with MHB to yield 1x10^6 CFU/mL.
# (§3) MIC and MBC of compounds 1–3 were assessed using the broth microdilution method recommended by the National Committee for Clinical Laboratory Standards with slight modifications. Each test sample was dissolved in dimethylsulfoxide (DMSO) to give a stock solution. The 96-well round bottom sterile plates were prepared by dispensing 180 μL of the inoculated broth (1x10^6 CFU/mL) into each well. A 20 μL aliquot of the stock solution of compound was added. The concentrations of sample tested were 0.125, 0.25, 0.50, 1, 2, 4, 8, 16, 32, 64, 128, 256 and 512 μg/mL. […] Dilutions of tetracycline and ampicillin served as positive controls, while broth with 20 μL of DMSO was used as negative control. The ATCC strain Staphylococcus aureus ATCC 25923 was included for quality assurance purposes. Plates were covered and incubated for 24 h at 37 °C. After incubation, minimum inhibitory concentrations (MIC) were read visually; all wells were plated to nutrient agar (Hi-Media) and incubated. The minimal bactericidal concentration (MBC) was defined as a 99.9% reduction in CFU from the starting inoculums after 24 h incubation interval.
# V. cholerae NB2 = assay: Broth microdilution MIC/MBC; format: cell-based, Vibrio cholerae; settings: for Selectivity Index V. cholerae NB2: SI = LC50 on Vero cells / MIC; for MBC/MIC / MBC / MIC: V. cholerae NB2; for MBC / MIC: Vibrio cholerae; for MBC: 99.9% reduction in CFU after 24 h; for MIC: 24 h at 37 °C, read-out: MIC
# Method: as §1, §2, §3
# V. cholerae PC2 = assay: Broth microdilution MIC/MBC; format: cell-based, Vibrio cholerae; settings: for MBC / MIC: Vibrio cholerae; for MBC: 99.9% reduction in CFU after 24 h; for MIC: 24 h at 37 °C, read-out: MIC
# Method: as §1, §2, §3
# V. cholerae SG24 = assay: Broth microdilution MIC/MBC; format: cell-based, Vibrio cholerae; settings: Vibrio cholerae; for MBC: 99.9% reduction in CFU after 24 h; for MIC: 24 h at 37 °C
# Method: as §1, §2, §3
# S. flexneri SDINT = assay: Broth microdilution MIC/MBC; format: cell-based, Shigella flexneri; settings: for MBC/MIC / MBC / MIC: S. flexneri SDINT; for Selectivity Index S. flexneri SDINT: SI = LC50 on Vero cells / MIC; for MBC / MIC: Shigella flexneri; for MBC: 99.9% reduction in CFU after 24 h; for MIC: 24 h at 37 °C, read-out: MIC
# Method: as §1, §2, §3
# S. aureus ATCC 25923 = assay: Broth microdilution MIC/MBC; format: cell-based, Staphylococcus aureus; settings: for MBC/MIC / MBC / MIC: S. aureus ATCC 25923; for Selectivity Index S. aureus ATCC 25923: SI = LC50 on Vero cells / MIC; for MBC / MIC: Staphylococcus aureus, ATCC25923; for MBC: 99.9% reduction in CFU after 24 h; for MIC: 24 h at 37 °C
# Method: as §1, §2, §3
# MTT cytotoxicity assay [1] = format: cell-based, Human; settings: human, HeLa cells; MTT, 24 h, mean ± SD; read-out: Cytotoxicty (LC50) HeLa cells
# Method: (§4) HeLa (Human cervical cancer cell line, ATCC No. CCL-2) and Vero cells (African green monkey kidney cells, normal non-cancer cells, ATCC No. CCL-81), obtained from the American Type Culture Collection (ATCC) were used in this study. Cytotoxic activity was determined using the 3-(4,5-dimethylthiazol-2-yl)-2,5-diphenyltetrazolium bromide (MTT, Sigma, USA) assay reported by Mosmann for the HeLa and Vero cells. This cell viability assay is based on living cell‘s property to transform the MTT dye tetrazolium ring into a purple-colored formazan structure due to the action of mitochondrial and other dehydrogenases inside the cell. The color intensity yielded by the cell population is directly proportional to the number of viable cells, and one can quantify the absorbance measurements using mathematical parameters. Each test sample was dissolved in dimethylsulfoxide (DMSO) to give a stock solution. Compounds 1–3 were prepared from the stock solutions by serial dilution in RPMI 1640 to give a volume of 100 μL in each well of a microtiter plate (96-well). Each well was filled with 100 μL of cells at 2 × 10^5 cells/mL. The assay for each concentration of compound was performed in triplicates and the culture plates were kept at 37 °C with 5% (v/v) CO2 for 24 h. After removing the supernatant of each well and washing twice by PBS, 20 μL of MTT solution (5 mg/mL in PBS) and 100 μL of medium were then introduced. After 4 h of incubation, 100 μL of DMSO were added to each well to dissolve the formazan crystals and the absorbance values at 490 nm were measured with a microplate reader (Bio-RAD 680, USA). The relative cell viability (%) was expressed as a relative percentage of treated cells to the untreated control cells (TC/UC × 100). The rate of cell inhibition was calculated using the following formula: inhibition rate = [1- (ODtest/ODnegative control)] × 100%. The LC50 values were calculated as the concentration of test sample resulting in a 50% reduction of absorbance compared to untreated cells. Cells treated with 5-fluorouridine + RPMI 1640 served as positive control while cells left untreated + 1% (v/v) DMSO + RPMI 1640 were used as negative control.
# HeLa cells = assay: MTT cytotoxicity assay; format: cell-based, Human; settings: SI = LC50 on Vero cells / LC50 on HeLa cells
# Method: as §4
# MTT cytotoxicity assay [2] = format: cell-based; settings: African green monkey, Vero cells, normal non-cancer cells, mean ± SD, read-out: Cytotoxicty (LC50) Vero cells
# Method: as §4
# Hemolytic assay = format: cell-based; settings: male, 1% human red blood cell suspension, 512 μg/mL (highest concentration tested), 1% human red blood cells, PBS pH 7.4, 37 °C
# Method: Whole blood (10 mL) from a healthy person was collected into a conical tube containing heparin as an anticoagulant. Erythrocytes were harvested by centrifugation at room temperature for 10 min at 1,000 × g and were washed three times in PBS solution. The top layer (plasma) and the next, milky layer (buffy coat with a layer of platelets on top of it) were then carefully aspirated and discarded. The cell pellet was resuspended in 10 mL of PBS solution and mixed by gentle aspiration with a Pasteur pipette. This cell suspension was used immediately.
# For the normal human red blood cells, which were in suspension, the cytotoxicity was evaluated as previously described. Compounds 1–3, at concentrations ranging from 32 to 512 μg/mL, were incubated with an equal volume of 1% human red blood cells in phosphate buffered saline (10 mM PBS, pH 7.4) at 37 °C for 1 h. Tetracycline was tested simultaneously. Non-hemolytic and 100% hemolytic controls were the buffer alone and the buffer containing 1% Triton X-100, respectively. Cell lysis was monitored by measuring the release of hemoglobin at 595 nm with a spectrophotometer (Thermo Scientific, USA). Percent hemolysis was calculated as follows: [(A595 of sample treated with compound - A595 of sample treated with buffer)/(A595 of sample treated with Triton X-100 – A595 of sample treated with buffer)] x 100.
# [3] = tested on: studied microorganisms (six bacterial strains); assay: Antibacterial spectrum over the six tested strains (broth microdilution); format: cell-based; settings: out of 6 strains; concentrations up to 512 μg/mL
# Method: as §1, §3
Compound,Selectivity Index V. cholerae CO6 (V. cholerae CO6),MBC/MIC (V. cholerae CO6),MBC (V. cholerae CO6),MIC (V. cholerae CO6),Selectivity Index V. cholerae NB2 (V. cholerae NB2),MBC/MIC (V. cholerae NB2),MBC (V. cholerae NB2),MIC (V. cholerae NB2),MBC (V. cholerae PC2; V. cholerae PC2),MIC (V. cholerae PC2; V. cholerae PC2),MBC (V. cholerae SG24),MIC (V. cholerae SG24),MBC/MIC (S. flexneri SDINT),Selectivity Index S. flexneri SDINT (S. flexneri SDINT),MBC (S. flexneri SDINT),MIC (S. flexneri SDINT),MBC/MIC (S. aureus ATCC 25923),Selectivity Index S. aureus ATCC 25923 (S. aureus ATCC 25923),MBC (S. aureus ATCC 25923),MIC (S. aureus ATCC 25923),further results
"C=C1[C@@H](C)C2[C@H](Cc3ccccc3)NC(=O)[C@@]23C(/C=C/C[C@H](C)C[C@@](C)(O)/C=C/[C@H]3OC(C)=O)[C@@H]1O (some centres unmarked) [Compound 2, cytochalasin H]",0.25,1,512 µg/mL,512 µg/mL,0.25,1,512 µg/mL,512 µg/mL,256 µg/mL,256 µg/mL,> 512 µg/mL,> 512 µg/mL,1,1.00,128 µg/mL,128 µg/mL,1,0.50,256 µg/mL,256 µg/mL,"Selectivity Index V. cholerae PC2 (V. cholerae PC2; SI = LC50 on Vero cells / MIC): 0.50; MBC/MIC (V. cholerae PC2; V. cholerae PC2): 1; CC50 at 24 h (MTT cytotoxicity assay [1]): 35.7 ± 1.31 µg/mL; Selectivity Index HeLa cells (HeLa cells): 3.61; CC50 at 24 h (MTT cytotoxicity assay [2]): 129.1 ± 1.2 µg/mL; hemolysis at 1 h, 512 μg/mL (Hemolytic assay): 20.1%; share of the studied microorganisms on which inhibitory effects were noted [3]: 83.33%"
"C=C1[C@@H](C)C2[C@H](Cc3ccccc3)NC(=O)[C@@]23C(/C=C/C[C@H](C)C[C@@](C)(O)/C=C/[C@H]3O)[C@@H]1O (some centres unmarked) [Compound 3, cytochalasin J]",0.14,1,512 µg/mL,512 µg/mL,0.14,1,512 µg/mL,512 µg/mL,> 512 µg/mL,> 512 µg/mL,> 512 µg/mL,> 512 µg/mL,1,0.57,128 µg/mL,128 µg/mL,1,0.14,512 µg/mL,512 µg/mL,"CC50 at 24 h (MTT cytotoxicity assay [1]): 3.66 ± 0.33 µg/mL; Selectivity Index HeLa cells (HeLa cells): 20.18; CC50 at 24 h (MTT cytotoxicity assay [2]): 73.9 ± 0.92 µg/mL; hemolysis at 1 h, 512 μg/mL (Hemolytic assay): < 10%; share of the studied microorganisms on which inhibitory effects were noted [3]: 66.66%"
"C=C1[C@@H](C)C2[C@H](Cc3ccccc3)NC(=O)[C@]23[C@H](O)/C=C/[C@](C)(OC)C[C@@H](C)C/C=C/[C@@H]3[C@@H]1O (some centres unmarked) [Compound 1, 18-metoxycytochalasin J]",0.18,1,512 µg/mL,512 µg/mL,0.18,1,512 µg/mL,512 µg/mL,> 512 µg/mL,> 512 µg/mL,> 512 µg/mL,> 512 µg/mL,1,0.72,128 µg/mL,128 µg/mL,1,0.72,128 µg/mL,128 µg/mL,"CC50 at 24 h (MTT cytotoxicity assay [1]): 8.18 ± 0.92 µg/mL; Selectivity Index HeLa cells (HeLa cells): 11.37; CC50 at 24 h (MTT cytotoxicity assay [2]): 93 ± 2.54 µg/mL; hemolysis at 1 h, 512 μg/mL (Hemolytic assay): < 10%; share of the studied microorganisms on which inhibitory effects were noted [3]: 66.66%"
